Article PMC7367283, “A PIP2 substitute mediates voltage sensor-pore coupling in KCNQ activation” (Communications Biology, 2020)
Values joined by “and” are separate entries in the source; they are usually repeats but may differ in a detail not shown here. Identical values can stand only once.

How the values were obtained:
[1] = system: guinea pig ventricular myocytes; assay: Action potential recording in ventricular myocytes with moxifloxacin-prolonged (LQT) action potentials; assay type: cell-based; set-up: actional potential duration (APD), Fig. 7h: unit not given here; conditions: for actional potential duration (APD), Fig. 7h: Moxi-Group, individual cells
Procedure: (§1) Fig. 7 Effects of CP1 on IKs and action potentials in cardiomyocytes. a IKs currents in guinea pig ventricular myocytes in the absence and presence of 30 µM CP1 in the whole-cell patch-clamp configuration. Holding potential: −40 mV; testing potentials: −20 to +60 mV with 10-mV increment; returning potential: −20 mV. […] Guinea pig ventricular myocytes were first perfused with 10 µM CP1 and 10 µM chromanol. After APD reached steady state, 10 µM CP1 was constitutively perfused alone. Last, CP1 was washed out for near-full reversal of APD shortening. g Effects of 0.2 µM CP1 on LQT action potentials. To mimic the LQT, 100 µM moxifloxacin was applied 2 h before the treatment of CP1. h Change of action potential duration after application of different [CP1]s (n = 5–7). Tukey–Kramer ANOVA test was used to compare control cells in different CP1 concentration, # is significant at P < 0.05. Unpaired two-tailed Student t tests were used to compare control and moxifloxacin cells at different CP1 concentration: * is significant at P < 0.05.
(§2) In ventricular myocytes, the duration and the morphology of action potentials are determined by various ion channels. Mutations in many of these channels and drugs that modify channel functions, such as an increase in inward Na^+ currents or decrease in outward K^+ currents, may lead to a prolonged action potential duration, which results in an inherited or acquired long QT syndrome that predisposes afflicted patients to cardiac arrhythmia. An enhancement of the outward IKs current may be able to counter these mutations or drug effects, and restore the action potential duration to more normal values. […] Next, we used an IKr blocker (Moxifloxacin, Moxi) to prolong action potentials and then applied various concentrations of CP1.
(§3) The use of guinea pigs was approved by the Stony Brook University Institutional Animal Care and Use Committee. Single ventricular myocytes were acutely enzymatically isolated from guinea pig heart as previously described. Guinea pigs, weighing 300–500 g, were sacrificed by peritoneal injection of sodium pentobarbitone (1 ml, 390 mg/ml). The isolated cells were stored in KB solution containing (in mM) 83 KCl, 30 K2HPO4, 5 MgSO4, 5 Na pyruvate, 5 β-OH-butyric acid, 20 creatine, 20 taurine, 10 glucose, and 0.5 EGTA, pH 7.2.
(§4) Action potentials were recorded with whole-cell patch-clamp recording techniques. Current-clamp configuration was used. Freshly isolated guinea pig cardiac myocytes were placed at 1 Hz with a stimulus of 180-pA amplitude and 10-mS duration. The APD was determined at 90% repolarization. Several minutes were allowed for the APD to reach steady state before data were collected. Typical Tyrode mimic AP Solution for action potential recording was used. The bath solution is composed of (in mM) 140 NaCl, 3 KCl, 1 MgCl2, 1.8 CaCl2, 10 HEPES, and 10 Glucose, pH 7.4. The pipette solution is composed of (in mM) 115 K-aspartic acid, 35 KOH, 3 MgCl2, 10 HEPES, 11 EGTA, 5 Glucose, and 3 MgATP, pH 7.4.

[2] = system: guinea pig ventricular myocytes; assay: Action potential recording in ventricular myocytes with normal action potentials; assay type: cell-based; set-up: actional potential duration (APD), Fig. 7h: unit not given here; conditions: for actional potential duration (APD), Fig. 7h: Control-Group, individual cells
Procedure: as §1, §2, §3, §4

## O=S(=O)([O-])Oc1c(-c2sc3c(ccc4cccc(Cl)c43)c2OS(=O)(=O)[O-])[nH]c2ccc(Br)cc12.[Na+].[Na+] [CP1, DISODIUM 5-BROMO-2-[9-CHLORO-3-(SULFONATOOXY) NAPHTHO [1,2-B] THIEN-2-YL]-1H-INDOL-3-YL SULFATE]
[1]; 0.2 µM CP1, 100 µM moxifloxacin applied 2 h before
  action potential duration: return the action potential duration back to normal
[1]; 0.6 and 6 µM CP1, moxifloxacin
  action potential duration: reduced Moxifloxacin-induced action potential prolongation
[1]; 0.2 µM CP1
  actional potential duration (APD), Fig. 7h: 628 and 590 and 655 and 646 and 548 and 586
[1]; 0.6 µM CP1
  actional potential duration (APD), Fig. 7h: 549 and 521 and 579 and 388 and 495
[1]; 6 µM CP1
  actional potential duration (APD), Fig. 7h: 393 and 380 and 396 and 407 and 426 and 406
[2]; 0.2 µM CP1, control myocytes
  action potential duration: did not alter action potential duration
[2]; 10 µM CP1 alone
  action potential duration (APD): significantly shortened
[2]; 10 µM CP1 perfused together with 10 µM chromanol 293B
  action potential duration (APD): not changed
[2]; 0.6 and 6 µM CP1
  action potentials in control cells: shortened
[2]; 0.2 µM CP1
  actional potential duration (APD), Fig. 7h: 682 and 570 and 576 and 550 and 596 and 520
[2]; 0.6 µM CP1
  actional potential duration (APD), Fig. 7h: 473 and 609 and 463 and 428 and 542 and 511 and 475
[2]; 6 µM CP1
  actional potential duration (APD), Fig. 7h: 347 and 378 and 362 and 454
